# Positions of bridges follow the written chain, without caps; N, C: chain ends. No end group written: not given here.
# Test system: Adult female mongrel dogs
# Test: Partial agonist screen in indomethacin-treated dogs under water diuresis (urine volume and osmolality)
# Type: in vivo
# Experimental: The compounds are tested for partial agonist activity by the following procedures:
# Adult female mongrel dogs are fasted for 18 hours prior to testing. The studies are conducted under steady state water diuresis initiated by a 5% body weight water load and a 3% dextrose infusion. At 0 hour, indomethacin, a cyclooxygenase inhibitor, is administered (2 mg/kg i.v. bolus and 3 mg/kg/hr i.v. infusion). Twenty minutes later, the test compound is administered i.v. Urine volume and osmolality are measured every 10 minutes for 4 hours.
# The indomethacin dog model may predict the agonist activity of a compound in man.
substance,measurement,value
"ADH: the natural anti-diuretic hormone (ADH), vasopressin (CYFQNCPRG-NH2; disulfide 1-6; ends not checked; UniProt P01185 20-28, looked up)","antidiuretic activity (urine osmolality, volume) after treatment with indomethacin",potentiates the antidiuretic activity
